Data taken from patent US6335398B1, “Super absorbent polymer composition” (priority 1994, dated 2002).

Experiments:
[1] = pKCu, stability constant of the Cu2+ chelate by Cu ion electrode method; type: physicochemical
Procedure: The pKCu was obtained by the following procedures. A Cu ion electrode method was used (Orion pH/ion analyzer; Cu ion electrode). A 0.1M triethanolamine-HCl (pH 8) buffer solution was used.
First of all, standard copper ion buffer solutions [400, 320, 240, 160 or 80 ppm (reduced to Cu^2+)] were prepared using CuCl2.2H2O, and a calibration curve was prepared using a copper ion electrode.
Then, a sample weighing 0.1 g was dissolved in 100 ml of a buffer solution in a measuring flask. To the sample solution was added dropwise a 0.05M CuCl2.2H2O buffer solution (pH 8) from a burette in 0.6 ml portions, and the potential of the Cu ion electrode was measured. The titration was conducted until the potential exceeded the level corresponding to 400 ppm (reduced to Cu^2+). Blank measurements were also carried out. A free Cu ion concentration was calculated from the potential, and the calculated value was corrected for the change in amount of the liquid of the measurement system due to the titration. Assuming that addition of an equimolar amount of Cu to a sample produces a 1:1 (by mole) complex, pKCu can be obtained from formula 1:
Stability Constant KML=[ML]/([M][L])
[ML]: Concentration of metal/chelating agent complex
[M]: Concentration of free metal ion
[L]: Concentration of free chelating agent

[2] = Solubility of copper salt of chelating compound in physiological saline; conditions: stirred 30 minutes
[3] = log stability constant with Cu2+, 25° C., 0.1M triethanolamine-HCl pH 8

| Molecule | pKCu (25° C.) ([1]; pH 8) | Solubility of Cu Salt (25° C.) [2] | pKCu (25° C.) [1, 3] |
| --- | --- | --- | --- |
| O=C(O)CN(CCN(CC(=O)O)CC(=O)O)CC(=O)O [EDTA, ethylenediaminetetraacetic acid, reference compound] | 18.79 | – | – |
| O=P(O)(O)OP(=O)(O)OP(=O)(O)O [Sodium Tripolyphosphate, reference compound] | – | 1 wt % | 6.8 |
| O=C([O-])CC(O)(CC(=O)[O-])C(=O)[O-].[Na+].[Na+].[Na+] [Trisodium Citrate, reference compound] | – | – | 5.2 |
| CC(C)c1cccc(O)c(=O)c1 [β-Thujaplicin, β-thujaplicin] | – | <0.0001 wt % | 7.9 |
| CC(C)c1ccc(O)c(=O)cc1 [γ-Thujaplicin, γ-thujaplicin] | – | – | 7.9 |
| Monooleyl Citrate | – | – | 6.4 |
| Monooleyl Phosphate | – | – | 3.3 |
